Measurements from ChEMBL document CHEMBL4732203, “Synthesis of polyenylpyrrole derivatives with selective growth inhibitory activity against T-cell acute lymphoblastic leukemia cells” (Bioorg Med Chem Lett, 2021).

Assays:
Format in all cases: functional, cell-based
CCRF-CEM = test: Cytotoxicity against human CCRF-CEM cells assessed as reduction in cell viability incubated for 72 hrs
Raji = test: Cytotoxicity against human Raji cells assessed as reduction in cell viability incubated for 72 hrs
HeLa = test: Cytotoxicity against human HeLa cells assessed as reduction in cell viability incubated for 3 days; details: 72 h
HSC-3 = test: Cytotoxicity against human HSC-3 cells assessed as reduction in cell viability incubated for 3 days; details: HSC-3, 72 h

Row | Compound | IC50 (CCRF-CEM) | IC50 (Raji) | IC50 (HeLa) | IC50 (HSC-3)
1 | O=C(/C=C/C=C/C=C/c1ccc[nH]1)c1ccccc1 | 3.07 µM | 9.89 µM | – | –
2 | CCOC(=O)/C=C/C=C/C=C/C=C/c1[nH]ccc1Cl | 0.27 µM | > 10 µM | > 10 µM | > 10 µM
3 | COc1cc(\C(C)=C/C=C/C=C/C=C/c2[nH]ccc2Cl)oc(=O)c1C | 1.76 µM | > 10 µM | – | –
4 | CCOC(=O)/C=C/C=C/C=C/C=C/c1ccc[nH]1 | 1.34 µM | 4.09 µM | – | –
5 | CCOC(=O)/C=C/C=C/C=C/C=C/C=C/c1ccc[nH]1 | 0.45 µM | > 10 µM | – | –
6 | CCOC(=O)/C=C/C=C/C=C/C=C/c1ccco1 | > 10 µM | > 10 µM | – | –
7 | CCOC(=O)/C=C/C=C/c1ccc[nH]1 | > 10 µM | > 10 µM | – | –
8 | CCOC(=O)/C=C/C=C/C=C/c1[nH]ccc1Cl | 2.42 µM | > 10 µM | – | –
9 | O=C(/C=C/C=C/C=C/C=C/c1ccc[nH]1)c1ccccc1 | 0.72 µM | 5.99 µM | – | –
10 | CCOC(=O)/C=C/C=C/C=C/c1ccc[nH]1 | 3.67 µM | > 10 µM | – | –
11 | CCOC(=O)/C=C/c1ccc[nH]1 | > 10 µM | > 10 µM | – | –
12 | CCOC(=O)/C=C/C=C/C=C/C=C/c1cccn1C | > 10 µM | > 10 µM | – | –
13 | O=C(/C=C/C=C/C=C/c1ccc[nH]1)OCc1ccccc1 | 0.83 µM | > 10 µM | – | –
14 | CCOC(=O)/C=C/C=C/C=C/c1ccco1 | > 10 µM | > 10 µM | – | –
15 | O=C(/C=C/C=C/C=C/C=C/c1[nH]ccc1Cl)OCc1ccccc1 | 0.28 µM | 6.7 µM | – | –
16 | CCOC(=O)/C=C/C=C/c1[nH]ccc1Cl | > 10 µM | > 10 µM | – | –
17 | CCOC(=O)/C=C/C=C/C=C/C=C/c1nccs1 | > 10 µM | > 10 µM | – | –
18 | COc1cc(/C=C/C=C/C=C/C=C/c2[nH]ccc2Cl)oc(=O)c1 [AUXARCONJUGATIN B] | 0.51 µM | 5.74 µM | – | –
19 | CCOC(=O)/C=C/C=C/c1ccco1 | > 10 µM | > 10 µM | – | –
20 | CCOC(=O)/C=C/C=C/C=C/c1nccs1 | 4.5 µM | 4.35 µM | – | –
21 | CCOC(=O)/C=C/C=C/c1nccs1 | > 10 µM | > 10 µM | – | –
22 | O=C(/C=C/C=C/C=C/C=C/c1ccc[nH]1)OCc1ccccc1 | 0.19 µM | 1.4 µM | – | –
